In PubChem BioAssay AID330 (DTP/NCI, 2004):
Where “and” joins values, the source holds several entries; their conditions need not be identical. Identical values can stand only once. Toxic doses and inconclusive results are not listed. How the source made its calls: active means survival T/C of 150% or more; inactive means T/C below 125% in these data. Peptide text beside a SMILES is read from it.

Tested on: P388 leukemia ip, CD2F1 mice, survival T/C
Test: NCI In Vivo Anticancer Drug Screen. Data for tumor model P388 Leukemia (intraperitoneal) in CD2F1 (CDF1) mice
Conditions: endpoint: median survival time, higher = longer survival
Procedure, shortened: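 Mice carrying the transplanted tumor received test compound or vehicle. Survival was recorded in each group, and the value is the treated-group measurement divided by that of the vehicle-treated control group.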

[1] = dose: 50.0 mg/kg/injection, schedule: Q01DX009 (ip), vehicle: Klucel (hydroxypropylcellulose) (HPC)
[2] = dose: 100.0 mg/kg/injection, schedule: Q01DX009 (ip), vehicle: Klucel (hydroxypropylcellulose) (HPC)
[3] = dose: 200.0 mg/kg/injection, schedule: Q01DX009 (ip), vehicle: Klucel (hydroxypropylcellulose) (HPC)
[4] = dose: 50.0 mg/kg/injection, schedule: Q04DX003 (ip), vehicle: saline with Tween-80
[5] = dose: 50.0 mg/kg/injection, schedule: Q01DX005 (ip), vehicle: saline with Tween-80
[6] = dose: 100.0 mg/kg/injection, schedule: Q01DX005 (ip), vehicle: saline with Tween-80
[7] = dose: 200.0 mg/kg/injection, schedule: Q01DX005 (ip), vehicle: saline with Tween-80
[8] = dose: 6.25 mg/kg/injection, schedule: Q01DX009 (ip), vehicle: Klucel (hydroxypropylcellulose) (HPC)
[9] = dose: 12.5 mg/kg/injection, schedule: Q01DX009 (ip), vehicle: Klucel (hydroxypropylcellulose) (HPC)
[10] = dose: 50.0 mg/kg/injection, schedule: Q01DX009 (ip), vehicle: saline
[11] = dose: 50.0 mg/kg/injection, schedule: Q01DX009 (ip), vehicle: saline with Tween-80
[12] = dose: 100.0 mg/kg/injection, schedule: Q01DX009 (ip), vehicle: saline with Tween-80
[13] = dose: 200.0 mg/kg/injection, schedule: Q01DX009 (ip), vehicle: saline with Tween-80

Measured: T/C

O=C1N/C(=N/OF)C(F)C(NO)N1 (stereo not given)
inactive: [1] 103 % of control | [2] 103 % of control | [3] 101 % of control

COc1cc(C=NCc2ccccc2)cc(OC)c1O
inactive: [4] 103 % of control | dose: 200.0 mg/kg/injection, schedule: Q04DX003 (ip), vehicle: saline with Tween-80 97 % of control | dose: 400.0 mg/kg/injection, schedule: Q04DX003 (ip), vehicle: saline with Tween-80 97 % of control

COC1N(C2CC(O)C(CO)O2)C(=O)NC(=O)C1(F)Br (stereo not given)
inactive: dose: 178.0 mg/kg/injection, schedule: Q04DX003 (ip), vehicle: saline 118 % of control

OC(CCl)Cc1ccccc1 (stereo not given)
inactive: dose: 25.0 mg/kg/injection, schedule: Q04DX003 (ip), vehicle: saline with Tween-80 104 % of control | [4] 100 % of control | dose: 100.0 mg/kg/injection, schedule: Q04DX003 (ip), vehicle: saline with Tween-80 100 % of control

NC(=O)C1C2CC3C(C2O)C31C(N)=O (stereo not given)
inactive: dose: 50.0 mg/kg/injection, schedule: Q01DX005 (ip), vehicle: saline 91 % of control | dose: 100.0 mg/kg/injection, schedule: Q01DX005 (ip), vehicle: saline 92 % of control | dose: 200.0 mg/kg/injection, schedule: Q01DX005 (ip), vehicle: saline 98 % of control

CC(=O)c1ccccc1NC(=O)COc1ccccc1OCC(=O)Nc1ccccc1C(C)=O
inactive: [5] 100 % of control | [6] 92 % of control | [7] 96 % of control

O=C(Oc1ccccc1)OC1CCN(C(=O)Oc2ccccc2)CC1
inactive: dose: 50.0 mg/kg/injection, schedule: Q01DX001 (ip), vehicle: Klucel (hydroxypropylcellulose) (HPC) 100 % of control | dose: 100.0 mg/kg/injection, schedule: Q01DX001 (ip), vehicle: Klucel (hydroxypropylcellulose) (HPC) 102 % of control | dose: 200.0 mg/kg/injection, schedule: Q01DX001 (ip), vehicle: Klucel (hydroxypropylcellulose) (HPC) 100 % of control | dose: 400.0 mg/kg/injection, schedule: Q01DX001 (ip), vehicle: Klucel (hydroxypropylcellulose) (HPC) 100 % of control

COc1cc2c(c(OC)c1OC)-c1oncc1CC2
inactive: dose: 100.0 mg/kg/injection, schedule: Q04DX003 (ip), vehicle: Klucel (hydroxypropylcellulose) (HPC) 90 % of control | dose: 200.0 mg/kg/injection, schedule: Q04DX003 (ip), vehicle: Klucel (hydroxypropylcellulose) (HPC) 92 % of control | dose: 400.0 mg/kg/injection, schedule: Q04DX003 (ip), vehicle: Klucel (hydroxypropylcellulose) (HPC) 87 % of control

C/C(=N\NC(N)=S)c1ccccc1
inactive: dose: 3.12 mg/kg/injection, schedule: Q01DX009 (ip), vehicle: Klucel (hydroxypropylcellulose) (HPC) 106 % of control | [8] 111 % of control | [9] 114 % of control

COc1ccc(C(C)=O)cc1CN1CCN(Cc2cc(C(C)=O)ccc2OC)CC1
inactive: dose: 50.0 mg/kg/injection, schedule: Q01DX005 (ip), vehicle: Klucel (hydroxypropylcellulose) (HPC) 104 % of control | dose: 100.0 mg/kg/injection, schedule: Q01DX005 (ip), vehicle: Klucel (hydroxypropylcellulose) (HPC) 105 % of control | dose: 200.0 mg/kg/injection, schedule: Q01DX005 (ip), vehicle: Klucel (hydroxypropylcellulose) (HPC) 99 % of control

N#C/C(C(=S)S)=C(/O)c1ccccc1
inactive: dose: 25.0 mg/kg/injection, schedule: Q01DX009 (ip), vehicle: saline sonified 104 % of control | dose: 50.0 mg/kg/injection, schedule: Q01DX009 (ip), vehicle: saline sonified 109 % of control | dose: 100.0 mg/kg/injection, schedule: Q01DX009 (ip), vehicle: saline sonified 100 % of control

CCc1[nH]c(=O)nc(N)c1-c1ccc(N2CCCCC2)c([N+](=O)[O-])c1
inactive: dose: 60.0 mg/kg/injection, schedule: Q01DX005 (ip), vehicle: saline with Tween-80 93 % of control | dose: 120.0 mg/kg/injection, schedule: Q01DX005 (ip), vehicle: saline with Tween-80 96 % of control | dose: 240.0 mg/kg/injection, schedule: Q01DX005 (ip), vehicle: saline with Tween-80 97 % of control

CC(O)c1cc(C(C)O)cc(C(C)O)c1 (stereo not given)
inactive: [10] 95 % of control | dose: 100.0 mg/kg/injection, schedule: Q01DX009 (ip), vehicle: saline 101 % of control | dose: 200.0 mg/kg/injection, schedule: Q01DX009 (ip), vehicle: saline 99 % of control

CCCOC(=O)C1(N)CCCC1
inactive: dose: 100.0 mg/kg/injection, schedule: Q04DX003 (ip), vehicle: saline 100 % of control | dose: 200.0 mg/kg/injection, schedule: Q04DX003 (ip), vehicle: saline 113 % of control | dose: 400.0 mg/kg/injection, schedule: Q04DX003 (ip), vehicle: saline 118 % of control

CN(C)c1nc(N)nc(N)n1
inactive: [8] 100 % of control | [9] 101 % of control and 115 % of control | dose: 25.0 mg/kg/injection, schedule: Q01DX009 (ip), vehicle: Klucel (hydroxypropylcellulose) (HPC) 99 % of control and 106 % of control | [1] 100 % of control and 107 % of control | [2] 100 % of control | [3] 105 % of control

N#Cc1c(NC(=S)NC(=O)c2ccc(Cl)c(Cl)c2)sc(=S)c2c1CCCC2
inactive: [11] 108 % of control | [12] 96 % of control | [13] 92 % of control

CC1=C(C(N)=O)C(c2ccc(O)cc2)NC(=S)N1 (stereo not given)
inactive: dose: 60.0 mg/kg/injection, schedule: Q01DX005 (ip), vehicle: Klucel (hydroxypropylcellulose) (HPC) 101 % of control | dose: 120.0 mg/kg/injection, schedule: Q01DX005 (ip), vehicle: Klucel (hydroxypropylcellulose) (HPC) 101 % of control | dose: 240.0 mg/kg/injection, schedule: Q01DX005 (ip), vehicle: Klucel (hydroxypropylcellulose) (HPC) 101 % of control

CCn1c(=O)c(C(C)=O)cc2c(=O)c3c(ccc4ccccc43)oc21
inactive: [5] 104 % of control | [6] 93 % of control | [7] 91 % of control

COP(=O)(CC(=O)NCc1cc(C(C)(C)C)c(O)c(C(C)(C)C)c1)OC
inactive: [11] 110 % of control | [12] 103 % of control | [13] 100 % of control

CCOc1c(N=Nc2ccc(OC)cc2)c(-c2ccccc2)nn1C(=S)S
inactive: [5] 102 % of control | [6] 103 % of control | [7] 102 % of control

CCC[CH2][Sn]1([CH2]CCC)[O]C(=O)c2c(Cl)c(Cl)c(Cl)c(Cl)c2C(=O)[O]1
inactive: dose: 1.56 mg/kg/injection, schedule: Q01DX005 (ip), vehicle: saline with Tween-80 110 % of control and 115 % of control | dose: 3.13 mg/kg/injection, schedule: Q01DX005 (ip), vehicle: saline with Tween-80 119 % of control and 120 % of control | dose: 6.25 mg/kg/injection, schedule: Q01DX005 (ip), vehicle: saline with Tween-80 119 % of control and 120 % of control

COc1cc(/C=N/NC(=O)C(=O)N/N=C/c2cc(OC)c(OC)c(OC)c2)cc(OC)c1OC
inactive: [1] 89 % of control | [2] 95 % of control | [3] 93 % of control

C=C1C(=O)OC2/C=C(/C)C3OC3/C=C(/C(=O)OC)C(OC(C)=O)C(OC(=O)C3(C)OC3C)C12 (stereo not given)
inactive: dose: 1.5 mg/kg/injection, schedule: Q01DX009 (ip), vehicle: Klucel (hydroxypropylcellulose) (HPC) 124 % of control | dose: 12.0 mg/kg/injection, schedule: Q01DX009 (ip), vehicle: Klucel (hydroxypropylcellulose) (HPC) 86 % of control

O=C1NC(=O)C2C3C=CC(C12)C1C2CCOC2C31 (stereo not given)
inactive: [5] 104 % of control | [6] 100 % of control | [7] 99 % of control

CC(C)(C)CC(C)(C)c1ccc(OCCOc2ccc(C(=O)O)cc2)cc1
inactive: dose: 100.0 mg/kg/injection, schedule: Q01DX001 (ip), vehicle: saline sonified 105 % of control | dose: 200.0 mg/kg/injection, schedule: Q01DX001 (ip), vehicle: saline sonified 110 % of control | dose: 400.0 mg/kg/injection, schedule: Q01DX001 (ip), vehicle: saline sonified 110 % of control

CN1CCCC1=O
inactive: [10] 95 % of control

CSc1cccc(NC(=O)Oc2ccc(Br)cc2)c1
inactive: [11] 91 % of control | [12] 93 % of control | [13] 101 % of control

CC(C)C(NC(=O)C(CCCN=C(N)N)NC(=O)C(N)CCCCN)C(N)=O (stereo not drawn) (H-Lys-Arg-Val-NH2; configuration not given here)
inactive: dose: 12.5 mg/kg/injection, schedule: Q01DX009 (ip), vehicle: water 105 % of control | dose: 25.0 mg/kg/injection, schedule: Q01DX009 (ip), vehicle: water 103 % of control | dose: 50.0 mg/kg/injection, schedule: Q01DX009 (ip), vehicle: water 99 % of control | dose: 100.0 mg/kg/injection, schedule: Q01DX009 (ip), vehicle: water 105 % of control | dose: 200.0 mg/kg/injection, schedule: Q01DX009 (ip), vehicle: water 100 % of control
